Test [1] concerns the target PI3Kγ (p110γ) Recombinant Human Protein (Homo sapiens (Human), UniProt P48736). The test can be described thus: PI3K-γ scintillation proximity assay. Type of test: biochemical. Conditions: 2 μM ATP, 20 μM PIP2. In general terms: SPA uses beads or plates that emit light when radiolabelled molecules are held near them.
Test [2] deals with PI3Kδ (p110δ/p85α) Recombinant Human Protein (Homo sapiens (Human), UniProt O00329). Put plainly: PI3Kδ scintillation proximity assay. Type of test: biochemical. Conditions: 2 μM ATP, 20 μM PIP2.
Chain of PI3Kδ (p110δ/p85α) Recombinant Human Protein (O00329 whole entry): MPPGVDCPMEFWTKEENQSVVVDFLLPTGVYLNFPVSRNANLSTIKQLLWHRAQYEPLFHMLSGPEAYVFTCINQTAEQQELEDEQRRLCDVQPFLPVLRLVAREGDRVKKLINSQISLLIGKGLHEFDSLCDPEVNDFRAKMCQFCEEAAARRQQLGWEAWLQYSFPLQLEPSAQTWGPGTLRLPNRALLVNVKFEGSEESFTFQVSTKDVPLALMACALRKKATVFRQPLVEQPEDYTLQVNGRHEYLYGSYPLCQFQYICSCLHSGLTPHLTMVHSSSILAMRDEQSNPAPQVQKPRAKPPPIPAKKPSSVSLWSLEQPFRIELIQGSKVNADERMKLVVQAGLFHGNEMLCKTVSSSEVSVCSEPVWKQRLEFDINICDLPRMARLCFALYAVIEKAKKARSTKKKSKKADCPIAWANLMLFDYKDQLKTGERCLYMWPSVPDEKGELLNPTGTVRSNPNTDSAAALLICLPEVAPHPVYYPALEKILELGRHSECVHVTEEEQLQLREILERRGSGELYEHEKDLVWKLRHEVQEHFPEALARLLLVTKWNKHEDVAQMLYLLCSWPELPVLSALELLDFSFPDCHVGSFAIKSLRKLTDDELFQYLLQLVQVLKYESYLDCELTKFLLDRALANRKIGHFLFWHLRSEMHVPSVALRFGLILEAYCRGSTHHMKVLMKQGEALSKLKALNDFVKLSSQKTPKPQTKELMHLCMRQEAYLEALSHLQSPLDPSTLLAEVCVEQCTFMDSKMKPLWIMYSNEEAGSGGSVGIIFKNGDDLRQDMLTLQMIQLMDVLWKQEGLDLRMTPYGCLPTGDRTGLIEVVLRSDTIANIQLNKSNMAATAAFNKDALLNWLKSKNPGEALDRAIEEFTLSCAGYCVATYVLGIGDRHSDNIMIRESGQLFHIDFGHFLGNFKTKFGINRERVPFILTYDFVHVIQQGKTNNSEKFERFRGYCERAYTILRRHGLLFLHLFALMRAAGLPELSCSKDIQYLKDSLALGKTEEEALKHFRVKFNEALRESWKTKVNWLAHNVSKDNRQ
Chain of PI3Kδ (p110δ/p85α) Recombinant Human Protein (P27986 whole entry partner): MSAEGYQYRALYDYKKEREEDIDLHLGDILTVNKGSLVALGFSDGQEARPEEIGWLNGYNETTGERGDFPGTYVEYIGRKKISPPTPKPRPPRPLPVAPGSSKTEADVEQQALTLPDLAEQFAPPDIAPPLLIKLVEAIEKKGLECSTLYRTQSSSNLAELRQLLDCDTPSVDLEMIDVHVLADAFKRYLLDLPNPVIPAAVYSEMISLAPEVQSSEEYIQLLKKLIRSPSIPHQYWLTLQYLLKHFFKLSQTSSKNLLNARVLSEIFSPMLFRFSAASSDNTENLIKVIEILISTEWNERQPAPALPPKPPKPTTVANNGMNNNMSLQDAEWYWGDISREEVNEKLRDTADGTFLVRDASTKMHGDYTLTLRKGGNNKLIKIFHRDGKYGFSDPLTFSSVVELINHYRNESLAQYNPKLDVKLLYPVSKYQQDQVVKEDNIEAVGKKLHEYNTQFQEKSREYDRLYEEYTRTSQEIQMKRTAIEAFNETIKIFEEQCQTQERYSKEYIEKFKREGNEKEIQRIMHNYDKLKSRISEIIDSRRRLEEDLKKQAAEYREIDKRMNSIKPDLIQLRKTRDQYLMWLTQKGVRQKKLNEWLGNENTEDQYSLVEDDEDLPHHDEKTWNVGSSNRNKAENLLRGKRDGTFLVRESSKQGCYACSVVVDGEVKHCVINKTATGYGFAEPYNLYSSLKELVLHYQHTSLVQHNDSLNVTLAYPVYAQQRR
Test [3] relates to Phosphorylated Ribosomal Protein S6 (RPS6) in THP-1 cells. The test can be described thus: THP-1 RPS6 ELISA assay. Type of test: cell-based, human. Conditions: 10 nM MCP-1, read-out: PI3Kγ_THP1_RPS6_ELISA IC50. For orientation: An ELISA detects its analyte on a solid surface through an enzyme-linked reagent.
[4] abbreviates: Homo sapiens, THP-1, THP-1 cells.

Structures can show the parent of a compound that is named as a salt. Where two headings read alike, the source gives them in different places.

Chain of PI3Kγ (p110γ) Recombinant Human Protein (P48736 whole entry): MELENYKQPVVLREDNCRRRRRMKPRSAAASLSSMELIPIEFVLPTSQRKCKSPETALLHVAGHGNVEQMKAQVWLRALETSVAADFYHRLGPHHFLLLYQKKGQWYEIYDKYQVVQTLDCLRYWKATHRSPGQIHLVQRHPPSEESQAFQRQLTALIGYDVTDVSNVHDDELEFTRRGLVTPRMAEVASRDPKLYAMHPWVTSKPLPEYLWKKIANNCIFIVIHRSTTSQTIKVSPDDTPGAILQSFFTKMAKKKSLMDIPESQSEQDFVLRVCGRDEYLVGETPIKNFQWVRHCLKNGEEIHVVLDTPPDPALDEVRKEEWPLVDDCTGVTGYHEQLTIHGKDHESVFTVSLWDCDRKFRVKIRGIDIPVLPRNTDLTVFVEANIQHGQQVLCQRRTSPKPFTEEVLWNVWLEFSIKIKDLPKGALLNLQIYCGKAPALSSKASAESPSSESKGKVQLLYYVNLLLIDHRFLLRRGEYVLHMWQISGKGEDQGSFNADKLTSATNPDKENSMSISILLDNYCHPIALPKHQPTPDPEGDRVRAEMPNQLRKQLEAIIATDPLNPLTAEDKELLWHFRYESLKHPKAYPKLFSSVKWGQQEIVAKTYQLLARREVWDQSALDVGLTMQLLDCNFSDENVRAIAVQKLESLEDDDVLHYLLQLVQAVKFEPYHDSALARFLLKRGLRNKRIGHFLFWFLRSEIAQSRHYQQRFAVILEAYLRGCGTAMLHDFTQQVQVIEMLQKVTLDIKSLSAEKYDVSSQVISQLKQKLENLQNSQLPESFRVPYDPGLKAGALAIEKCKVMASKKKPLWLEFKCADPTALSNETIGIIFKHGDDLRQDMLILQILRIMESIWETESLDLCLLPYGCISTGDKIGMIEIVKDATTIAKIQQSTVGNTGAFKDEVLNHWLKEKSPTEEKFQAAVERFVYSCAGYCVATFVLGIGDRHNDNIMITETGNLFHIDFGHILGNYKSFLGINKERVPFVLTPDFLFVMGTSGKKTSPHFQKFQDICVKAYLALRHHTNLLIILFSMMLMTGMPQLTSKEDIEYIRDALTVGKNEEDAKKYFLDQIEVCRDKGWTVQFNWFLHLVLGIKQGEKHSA

The IC50 is the concentration at which inhibition is half-maximal. As for `CC(NC(=O)c1c(N)nn2cccnc12)c1cc(Cl)c2cn[nH]c2c1N1CC[C@@H](NS(C)(=O)=O)C1` (stereo partly drawn) [Example 96B, 2-Amino-N-[1-(4-chloro-7-{(3R)-3-[(methylsulfonyl)amino]pyrrolidin-1-yl}-2H-indazol-6-yl)ethyl]pyrazolo[1,5-a]pyrimidine-3-carboxamide trifluoroacetate], the results for the IC50 in test [1], in test [2] and in test [3] (setting [4]) were under 0.1 µM, under 0.1 µM and over 1 µM, respectively.

`CCOC(=O)C1CC=C(c2c(C(C)NC(=O)c3c(N)nn4cccnc34)cc(Cl)c3cn[nH]c23)CC1` (stereo not drawn) [Example 97, Ethyl 4-[6-(1-{[(2-aminopyrazolo[1,5-a]pyrimidin-3-yl)carbonyl]amino}ethyl)-4-chloro-2H-indazol-7-yl]cyclohex-3-ene-1-carboxylate bistrifluoroacetate]: the concentration for half-maximal inhibition (IC50) in test [1] was under 0.1 µM; in test [2], under 0.5 µM; in test [3] (setting [4]) it was under 1 µM.

For `COC1CC=C(c2c(C(C)NC(=O)c3c(N)nn4cccnc34)cc(Cl)c3cn[nH]c23)CC1` (stereo not drawn) [Example 100, 2-Amino-N-{1-[4-chloro-7-(4-methoxycyclohex-1-en-1-yl)-2H-indazol-6-yl]ethyl}pyrazolo[1,5-a]pyrimidine-3-carboxamide trifluoroacetate], the figures for the IC50 in test [1], in test [2] and in test [3] (setting [4]) were under 0.1 µM, under 0.5 µM and over 1 µM, respectively.

On to `CC(NC(=O)c1c(N)nn2cccnc12)c1cc(Cl)c2cn[nH]c2c1C1=CCC(C#N)CC1` (stereo not drawn) [Example 101, 2-Amino-N-{1-[4-chloro-7-(4-cyanocyclohex-1-en-1-yl)-2H-indazol-6-yl]ethyl}pyrazolo[1,5-a]pyrimidine-3-carboxamide trifluoroacetate], for which the IC50 is under 0.1 µM in test [1], under 0.5 µM in test [2] and under 0.5 µM in test [3] (setting [4]).

With `COC(=O)C1CCN(c2c(C(C)NC(=O)c3c(N)nn4cccnc34)cc(Cl)c3cn[nH]c23)C1` (stereo not drawn) [Example 102, Methyl 1-[6-(1-{[(2-aminopyrazolo[1,5-a]pyrimidin-3-yl)carbonyl]amino}ethyl)-4-chloro-2H-indazol-7-yl]pyrrolidine-3-carboxylate trifluoroacetate], the half-inhibitory concentration (IC50) was under 0.1 µM in test [1], under 0.5 µM in test [2] and over 1 µM in test [3] (setting [4]).

On to `CC(=O)N[C@H]1CCCN(c2c(C(C)NC(=O)c3c(N)nn4cccnc34)cc(Cl)c3cn[nH]c23)C1` (stereo partly drawn) [Example 104, N-(1-(7-((S)-3-Acetamidopiperidin-1-yl)-4-chloro-1H-indazol-6-yl)ethyl)-2-aminopyrazolo[1,5-a]pyrimidine-3-carboxamide trifluoroacetate], for which the IC50 in test [1] is under 0.1 µM; in test [2] it was under 0.1 µM; in test [3] (setting [4]) it was under 0.5 µM.

As for `CC(NC(=O)c1c(N)nn2cccnc12)c1cc(Cl)c2cn[nH]c2c1N1CCC[C@H](NS(C)(=O)=O)C1` (stereo partly drawn) [Example 105, 2-Amino-N-[1-(4-chloro-7-{(3S)-3-[(methylsulfonyl)amino]piperidin-1-yl}-2H-indazol-6-yl)ethyl]pyrazolo[1,5-a]pyrimidine-3-carboxamide trifluoroacetate], the IC50 in test [1] was under 0.1 µM; in test [2] it was under 0.1 µM; in test [3] (setting [4]), under 0.5 µM.

For `CCOC(=O)C1CCN(c2c(C(C)NC(=O)c3c(N)nn4cccnc34)cc(Cl)c3cn[nH]c23)CC1` (stereo not drawn) [Example 106, Ethyl 1-[6-(1-{[(2-aminopyrazolo[1,5-a]pyrimidin-3-yl)carbonyl]amino}ethyl)-4-chloro-2H-indazol-7-yl]piperidine-4-carboxylate trifluoroacetate], the results for the 50% inhibitory concentration (IC50) in test [1], in test [2] and in test [3] (setting [4]) were under 0.1 µM, under 0.5 µM and over 1 µM, respectively.

Take `CNC(=O)C1CCN(c2c(C(C)NC(=O)c3c(N)nn4cccnc34)cc(Cl)c3cn[nH]c23)CC1` (stereo not drawn) [Example 107, 2-Amino-N-[1-(4-chloro-7-{4-[(methylamino)carbonyl]piperidin-1-yl}-2H-indazol-6-yl)ethyl]pyrazolo[1,5-a]pyrimidine-3-carboxamide trifluoroacetate]: the values for the IC50 in test [1], in test [2] and in test [3] (setting [4]) were under 0.1 µM, under 0.5 µM and under 0.5 µM, respectively.

`CC(NC(=O)c1c(N)nn2cccnc12)c1cc(Cl)c2ccnn2c1N1CCCS(=O)(=O)CC1` (stereo not drawn) [Example 109, 2-Amino-N-{1-[4-chloro-7-(1,1-dioxido-1,4-thiazepan-4-yl)pyrazolo[1,5-a]pyridin-6-yl]ethyl}pyrazolo[1,5-a]pyrimidine-3-carboxamide trifluoroacetate]: the IC50 in test [1] was under 0.1 µM; in test [2] it was under 0.1 µM; in test [3] (setting [4]), under 0.5 µM.

Take `CC(NC(=O)c1c(N)nn2cccnc12)c1cc(Cl)c2ccnn2c1N1CCNS(=O)(=O)CC1` (stereo not drawn) [Example 110, 2-Amino-N-{1-[4-chloro-7-(1,1-dioxido-1,2,5-thiadiazepan-5-yl)pyrazolo[1,5-a]pyridin-6-yl]ethyl}pyrazolo[1,5-a]pyrimidine-3-carboxamide trifluoroacetate]: the IC50 in test [1] was under 0.1 µM; in test [2], under 0.1 µM; in test [3] (setting [4]), under 0.5 µM.

As to `CC(NC(=O)c1c(N)nn2cccnc12)c1cc(Cl)c2ccnn2c1N1CCS(=O)(=O)C(C)(C)C1` (stereo not drawn) [Example 111, 2-Amino-N-{1-[4-chloro-7-(2,2-dimethyl-1,1-dioxidothiomorpholin-4-yl)pyrazolo[1,5-a]pyridin-6-yl]ethyl}pyrazolo[1,5-a]pyrimidine-3-carboxamide trifluoroacetate], the concentration for half-maximal inhibition (IC50) in test [1] was under 0.1 µM; in test [2] it was under 0.1 µM; in test [3] (setting [4]), under 0.5 µM.

In the case of `CC(NC(=O)c1c(N)nn2cccnc12)c1cc(Cl)c2c(Cl)cnn2c1N1CCS(=O)(=O)C(C)C1` (stereo not drawn) [Example 112A, 2-Amino-N-{1-[3,4-dichloro-7-(2-methyl-1,1-dioxidothiomorpholin-4-yl)pyrazolo[1,5-a]pyridin-6-yl]ethyl}pyrazolo[1,5-a]pyrimidine-3-carboxamide trifluoroacetate], the half-maximal inhibitory concentration (IC50) in test [1] was under 0.1 µM; in test [2], under 0.1 µM; in test [3] (setting [4]), under 0.5 µM.

Take `CC(NC(=O)c1c(N)nn2cccnc12)c1cc(Cl)c2c(Cl)cnn2c1N1CCS(=O)(=O)CC1` (stereo not drawn) [Example 113, 2-Amino-N-{1-[3,4-dichloro-7-(1,1-dioxidothiomorpholin-4-yl)pyrazolo[1,5-a]pyridin-6-yl]ethyl}pyrazolo[1,5-a]pyrimidine-3-carboxamide trifluoroacetate]: the values for the IC50 in test [1], in test [2] and in test [3] (setting [4]) were under 0.1 µM, under 0.1 µM and under 0.5 µM, respectively.

Take `CC(NC(=O)c1c(N)nn2cccnc12)c1cc(Cl)c2c(Cl)cnn2c1N1CCCS(=O)(=O)CC1` (stereo not drawn) [Example 114, 2-Amino-N-{1-[3,4-dichloro-7-(1,1-dioxido-1,4-thiazepan-4-yl)pyrazolo[1,5-a]pyridin-6-yl]ethyl}pyrazolo[1,5-a]pyrimidine-3-carboxamide trifluoroacetate]: the IC50 in test [1] is under 0.1 µM; in test [2], under 0.1 µM; in test [3] (setting [4]), under 0.5 µM.

Take `CC(NC(=O)c1c(N)nn2cccnc12)c1cc(Cl)c2c(Cl)cnn2c1N1CCNS(=O)(=O)CC1` (stereo not drawn) [Example 115, 2-Amino-N-{1-[3,4-dichloro-7-(1,1-dioxido-1,2,5-thiadiazepan-5-yl)pyrazolo[1,5-a]pyridin-6-yl]ethyl}pyrazolo[1,5-a]pyrimidine-3-carboxamide trifluoroacetate]: the values for the IC50 in test [1], in test [2] and in test [3] (setting [4]) were under 0.1 µM, under 0.1 µM and under 0.5 µM, respectively.

On to `CC(NC(=O)c1c(N)nn2cccnc12)c1cc(Cl)c2c(Cl)cnn2c1N1CCS(=O)(=O)C(C)(C)C1` (stereo not drawn) [Example 116, 2-Amino-N-{1-[3,4-dichloro-7-(2,2-dimethyl-1,1-dioxidothiomorpholin-4-yl)pyrazolo[1,5-a]pyridin-6-yl]ethyl}pyrazolo[1,5-a]pyrimidine-3-carboxamide trifluoroacetate], for which the IC50 in test [1] is under 0.1 µM; in test [2], under 0.1 µM; in test [3] (setting [4]), under 0.5 µM.

In the case of `COc1cncc(-c2c(C(C)NC(=O)c3c(N)nn4cccnc34)cc(Cl)c3cncn23)c1` (stereo not drawn) [Example 134, 2-Amino-N-{1-[8-chloro-5-(5-methoxypyridin-3-yl)imidazo[1,5-d]pyridin-6-yl]ethyl}pyrazolo[1,5-a]pyrimidine-3-carboxamide trifluoroacetate salt], the concentration for half-maximal inhibition (IC50) in test [1] was under 0.1 µM; in test [2] it was under 0.5 µM; in test [3] (THP-1 cells), over 1 µM.

`COC1CCN(c2c(C(C)NC(=O)c3c(N)nn4cccnc34)cc(Cl)c3cncn23)C1` (stereo not drawn) [Example 144, 2-Amino-N-{1-[8-chloro-5-(3-methoxypyrrolidin-1-yl)imidazo[1,5-a]pyridin-6-yl]ethyl}pyrazolo[1,5-a]pyrimidine-3-carboxamide trifluoroacetate salt]: the IC50 is under 0.1 µM in test [1], under 0.5 µM in test [2] and under 0.5 µM in test [3] (setting [4]).

As for `CC(NC(=O)c1c(N)nn2cccnc12)c1cc(Cl)c2cncn2c1N1CCC(O)C1` (stereo not drawn) [Example 148, 2-Amino-N-{1-[8-chloro-5-(3-hydroxy-pyrrolidin-1-yl)imidazo[1,5-a]pyridin-6-yl]ethyl}pyrazolo [1,5-a]pyrimidine-3-carboxamide trifluoroacetate salt], the IC50 in test [1], in test [2] and in test [3] (setting [4]) was under 0.5 µM throughout.

With `CC(NC(=O)c1c(N)nn2cccnc12)c1cc(Cl)c2cncn2c1N1C[C@@H](O)C[C@H](O)C1` (stereo partly drawn) [Example 150, 2-Amino-N-(1-{8-chloro-5-[(3S,5S)-3,5-dihydroxypiperidin1-yl]imidazo[1,5-a]pyridin-6-yl}ethyl)pyrazol[1,5-a]pyrimidine-3-carboxamide trifluoroacetate salt], the IC50 in test [1] was under 0.1 µM; in test [2] it was under 0.1 µM; in test [3] (THP-1 cells), under 0.5 µM.

(Values after patent US10065963B2 (Incyte Corporation, priority 2015, dated 2018).)
